Laboratory results published in patent publication US7803940B2, “Heteromonocyclic compound or a salt thereof having strong antihypertensive action, insulin sensitizing activity and the like production thereof and use thereof for prophylaxis or treatment of cardiovascular diseases, metabolic diseases and/or central nervous system diseases” (Takeda Pharmaceutical Company Limited, priority 2006, dated 2010).
Counter-ions that a name gives are not always drawn. Like-named read-outs stand apart in the source and are kept apart here.

Assays:
PPARγ = molecular target: T1, PPARγ (Homo sapiens, UniProt P37231); test: Evaluation of PPARγ activating action (luciferase reporter, PPARγ:RXRα:4ERPP/CHO-K1 cells); format: cell-based; details: for activation at 1 µM: CHO-K1, 24 h, read-out: PPARγ activating action (activation % (10^−6 M))
T1 construct: expressed in transfected cells; host or cells: CHO-K1
T1 sequence (P37231 1-477 isoform P37231-2): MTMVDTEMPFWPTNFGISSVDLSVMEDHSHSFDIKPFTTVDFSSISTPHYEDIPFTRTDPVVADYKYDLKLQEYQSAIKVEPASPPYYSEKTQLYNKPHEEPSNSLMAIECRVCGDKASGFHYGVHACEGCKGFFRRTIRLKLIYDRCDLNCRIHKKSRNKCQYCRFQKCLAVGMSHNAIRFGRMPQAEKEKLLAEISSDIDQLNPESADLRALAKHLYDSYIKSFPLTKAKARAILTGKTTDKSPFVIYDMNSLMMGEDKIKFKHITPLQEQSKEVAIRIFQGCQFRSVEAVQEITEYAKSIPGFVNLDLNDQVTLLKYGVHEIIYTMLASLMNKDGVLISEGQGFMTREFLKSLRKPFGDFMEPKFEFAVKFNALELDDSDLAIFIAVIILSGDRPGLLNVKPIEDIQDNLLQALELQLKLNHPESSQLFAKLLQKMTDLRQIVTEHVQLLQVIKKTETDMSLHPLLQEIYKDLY
T1 sequence (P19793 1-462 partner): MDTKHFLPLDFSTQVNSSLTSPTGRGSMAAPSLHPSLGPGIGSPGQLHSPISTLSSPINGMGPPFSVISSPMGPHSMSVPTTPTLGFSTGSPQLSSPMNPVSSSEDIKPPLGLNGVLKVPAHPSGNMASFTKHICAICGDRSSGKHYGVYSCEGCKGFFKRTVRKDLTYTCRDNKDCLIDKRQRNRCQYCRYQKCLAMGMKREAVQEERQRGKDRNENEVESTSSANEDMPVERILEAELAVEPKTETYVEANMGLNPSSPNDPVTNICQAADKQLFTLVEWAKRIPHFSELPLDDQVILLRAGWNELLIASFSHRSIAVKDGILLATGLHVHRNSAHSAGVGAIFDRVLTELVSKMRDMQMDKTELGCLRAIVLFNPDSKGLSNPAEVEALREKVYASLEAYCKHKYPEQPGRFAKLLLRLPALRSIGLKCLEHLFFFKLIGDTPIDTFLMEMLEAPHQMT
Procedure: PPARγ:RXRα:4ERPP/CHO-K1 cells obtained in the following Reference Example 5 were cultured in F12 medium [manufactured by INVITROGEN, USA] containing 10% fetal bovine serum [manufactured by MOREGATE, Australia], seeded in a 96-well half area white plate [manufactured by Corning Coster Corporation, USA] at the density of 5×10^3 cells/well and cultured in a CO2 gas incubator at 37° C. overnight.
Then the medium was removed from the 96-well half area white plate, 45 μl of Ham's F12 medium containing 0.1% fatty acid-free bovine serum albumin (BSA) and 5 μl of test compound were added, and the cells were cultured in a CO2 gas incubator at 37° C. for 1 day. The medium was removed and 20 μl of PicaGene 7.5 [manufactured by TOYO INK MFG. CO., LTD., Japan] diluted 2-fold with HBSS (HANKS' BALANCED SALT SOLUTION) [manufactured by BIO WHITTAKER, USA] was added. After stirring, the luciferase activity was determined using 1420 ARVO Multilabel Counter [manufactured by PerkinElmer, USA].
The percent (%) was calculated from the luciferase activity of each test compound when the luciferase activity of the control compound (compound X: 5-[3-(4-{[2-(2-furyl)-5-methyl-1,3-oxazol-4-yl]methoxy}-3-methoxyphenyl)propyl]-1,3-oxazolidine-2,4-dione) (1 μM) was 100% and that of the test compound non-administration group was 0%.
A CHO-K1 cell cultured in a 150 cm^2 cell culture flask [manufactured by Corning Costar Corporation, USA] containing Ham's F12 medium [manufactured by INVITROGEN, USA] supplemented with 10% fetal bovine serum [manufactured by INVITROGEN, USA] was scraped by treating with 0.5 g/L trypsin-0.2 g/L EDTA (ethylenediaminetetraacetic acid) [manufactured by Life Technologies, Inc., USA], and then the cell was washed with PBS (Phosphate-buffered saline) [manufactured by INVITROGEN, USA], centrifuged (1000 rpm, 5 minutes) and suspended in PBS. Subsequently, DNA was introduced into the cell under the conditions shown below using GENE PULSER [manufactured by Bio-Rad Laboratories, USA].
Namely, to a cuvette having a 0.4 cm gap were added 8×10^6 cells and 10 μg of plasmid pVgRXR2-hPPARγ obtained in Reference Example 4 and 10 μg of reporter plasmid pGL3-4ERPP-TK neo obtained in Reference Example 3, which was subjected to electroporation at the voltage of 0.25 kV under the capacitance of 960 μF. Subsequently, the cell was transferred into a F12 medium containing 10% fetal bovine serum and cultured for 24 hours, and then the cell was scraped again and centrifuged, and then suspended in Ham's F12 medium containing 10% fetal bovine serum supplemented with 500 μg/ml of Geneticin [manufactured by INVITROGEN, USA] and 250 μg/ml of Zeocin [manufactured by INVITROGEN, USA]. The obtained suspension was diluted to the density of 1 cells/ml and inoculated in a 96-well plate [manufactured by Corning Costar Corporation, USA], which was cultured in a CO2 gas incubator at 37° C., whereby obtaining a Geneticin- and Zeocin-resistant transformant.
Subsequently, after the transformant cell line thus obtained was cultured in a 24-well plate [manufactured by Corning Costar Corporation, USA], a cell line in which the luciferase was expressed and induced, i.e., PPARγ:RXRα:4ERPP/CHO-K1 cell was selected by the addition of 10 μM pioglitazone hydrochloride.

human AT1 receptor = molecular target: T2, human AT1 receptor (Homo sapiens, UniProt P30556); test: Binding assay using human AT1 receptor-expressing CHO-K1 cell membrane fraction ([125I]-angiotensin II); details: 22.5 pM [125I]-angiotensin II, 9 μg AT1 membrane, 1 hr room temperature; read-out: AT1 receptor binding inhibitory action (IC50 (nM))
T2 construct: expressed in transfected cells; host or cells: CHO-K1
T2 sequence (P30556 1-359): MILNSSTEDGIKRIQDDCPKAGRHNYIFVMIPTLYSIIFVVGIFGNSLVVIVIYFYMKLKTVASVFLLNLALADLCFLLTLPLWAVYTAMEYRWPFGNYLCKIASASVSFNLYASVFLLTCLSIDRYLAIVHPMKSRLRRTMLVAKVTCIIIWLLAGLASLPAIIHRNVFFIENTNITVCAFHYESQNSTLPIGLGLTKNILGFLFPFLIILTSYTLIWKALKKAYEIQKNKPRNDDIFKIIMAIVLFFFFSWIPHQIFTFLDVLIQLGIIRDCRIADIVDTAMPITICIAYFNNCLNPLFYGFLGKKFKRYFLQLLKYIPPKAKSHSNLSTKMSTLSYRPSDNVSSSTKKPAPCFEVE
Procedure: The membrane fraction for human AT1 receptor binding assay was prepared as follows. CHO-K1 cell capable of stable expression of human AT1 receptor was cultured, recovered, suspended in homogenize buffer (10 mM NaHCO3 (pH 7.4), 5 mM EDTA, 1×Complete EDTA free) [manufactured by Roche, Switzerland], and homogenized. The homogenate was centrifuged at low-speed (900×g, 10 min, 4° C.), and the supernatant was recovered and ultracentrifuged (90,000×g, 1 hr, 4° C.). The supernatant was discarded, and the pellets were resuspended in resuspension buffer (50 mM Tris (pH 7.4), 1 mM EDTA, 1×Complete EDTA free).
The binding assay was performed in the presence of 22.5 pM [^125I]-angiotensin II [manufactured by PerkinElmer, USA], 9 μg of AT1 membrane and test compound in 100 μL (total reaction volume) of reaction buffer (50 mM Tris (pH 7.4), 10 mM MgCl2 supplemented or not supplemented with 0.3 mg/mL fatty acid-free bovine serum albumin [manufactured by Wako Pure Chemical Industries, Ltd., Japan]). […] The filter was air-dried, and [^125I]-angiotensin II binding radioactivity was assayed with Top Count scintillation counter. Total binding was measured in the presence of 1% DMSO and nonspecific binding was measured in the presence of 1 μM CV-11974. […]

[1] = test compound 10^−6 M, luciferase activity of control compound X (1 μM) = 100%, non-administration group = 0%

SMILES	PPARγ activating action (activation % (10^−6 M)) (PPARγ; [1]) [%]	also measured
CCCCc1nc(CC)n(Cc2ccccc2)c(=O)c1Cc1ccc(-c2ccccc2-c2noc(=O)[nH]2)cc1 [Example 105, 3-benzyl-6-butyl-2-ethyl-5-{[2′-(5-oxo-4,5-dihydro-1,2,4-oxadiazol-3-yl)biphenyl-4-yl]methyl}pyrimidin-4(3H)-one]	64.1	–
CCCCc1nc(CC)n(CC(=O)C(C)(C)C)c(=O)c1Cc1ccc(-c2ccccc2-c2noc(O)n2)cc1 [Example 309, 6-butyl-3-(3,3-dimethyl-2-oxobutyl)-2-ethyl-5-{[2′-(5-oxo-4,5-dihydro-1,2,4-oxadiazol-3-yl)biphenyl-4-yl]methyl}pyrimidin-4(3H)-one potassium salt]	–	IC50 (human AT1 receptor): 1.6 nM; activation at 1 µM (PPARγ): 31.5%
CCCCc1nc(C2CC2)n(-c2ccccc2)c(=O)c1Cc1ccc(-c2ccccc2-c2noc([O-])n2)cc1.[K+] [Example 310, 6-butyl-2-cyclopropyl-5-{[2′-(5-oxo-4,5-dihydro-1,2,4-oxadiazol-3-yl)biphenyl-4-yl]methyl}-3-phenylpyrimidin-4(3H)-one potassium salt]	27.1	–
CCCc1nc(CC)n(-c2ccc3c(c2)CCO3)c(=O)c1Cc1ccc(-c2ccccc2-c2noc([O-])n2)cc1.[K+] [Example 311, 3-(2,3-dihydro-1-benzofuran-5-yl)-2-ethyl-5-{[2′-(5-oxo-4,5-dihydro-1,2,4-oxadiazol-3-yl)biphenyl-4-yl]methyl}-6-propylpyrimidin-4(3H)-one potassium salt]	38.1	–
CCCc1nc(CC)n(-c2ccc3c(c2)CC(C)O3)c(=O)c1Cc1ccc(-c2ccccc2-c2noc([O-])n2)cc1.[K+] (centres unmarked) [Example 312, 2-ethyl-3-(2-methyl-2,3-dihydro-1-benzofuran-5-yl)-5-{[2′-(5-oxo-4,5-dihydro-1,2,4-oxadiazol-3-yl)biphenyl-4-yl]methyl}-6-propylpyrimidin-4(3H)-one potassium salt]	50.3	–
CCCc1nc(CC)n(-c2ccc(OC)cc2)c(=O)c1Cc1ccc(-c2ccccc2-c2noc([O-])n2)cc1.[K+] [Example 313, 2-ethyl-3-(4-methoxyphenyl)-5-{[2′-(5-oxo-4,5-dihydro-1,2,4-oxadiazol-3-yl)biphenyl-4-yl]methyl}-6-propylpyrimidin-4(3H)-one potassium salt]	31.0	–
CCCc1nc(C(F)F)n(-c2ccc(OC)cc2)c(=O)c1Cc1ccc(-c2ccccc2-c2noc(=O)[nH]2)cc1 [Example 410, 2-(difluoromethyl)-3-(4-methoxyphenyl)-5-{[2′-(5-oxo-4,5-dihydro-1,2,4-oxadiazol-3-yl)biphenyl-4-yl]methyl}-6-propylpyrimidin-4(3H)-one]	–	activation at 1 µM (PPARγ; [1]): 19.5%
CCCc1nc(CC)c(C(O)C(C)C)c(=O)n1Cc1ccc(-c2ccccc2-c2noc(O)n2)cc1 (centres unmarked) [Example 473, 6-ethyl-5-(1-hydroxy-2-methylpropyl)-3-{[2′-(5-oxo-4,5-dihydro-1,2,4-oxadiazol-3-yl)biphenyl-4-yl]methyl}-2-propylpyrimidin-4(3H)-one potassium salt]	15.7	–
CCCc1nc(C)c(Oc2ccc(OC)cc2)c(=O)n1Cc1ccc(-c2ccccc2-c2noc(O)n2)cc1 [Example 476, 5-(4-methoxyphenoxy)-6-methyl-3-{[2′-(5-oxo-4,5-dihydro-1,2,4-oxadiazol-3-yl)biphenyl-4-yl]methyl}-2-propylpyrimidin-4(3H)-one potassium salt]	18.5	–
CCCc1nc(CC)c(Oc2cccc(OC)c2)c(=O)n1Cc1ccc(-c2ccccc2-c2noc(O)n2)cc1 [Example 488, 6-ethyl-5-(3-methoxyphenoxy)-3-{[2′-(5-oxo-4,5-dihydro-1,2,4-oxadiazol-3-yl)biphenyl-4-yl]methyl}-2-propylpyrimidin-4(3H)-one potassium salt]	16.7	–
